pEC50: −log10 of the molar value. Entries after “also recorded” stand apart in the source; their conditions may differ. Read-outs that look alike come from different tables or passages of the source.
Tests used:
Vero E6 cells = experiment: Cytotoxicity in Vero E6 cells (WST-1 assay among others); format: cell-based
HCoV-229E [1] = tested on: HCoV-229E; design: method as in earlier work; details: Huh7 cells; cited from earlier work
HCoV-229E [2] = experiment: Viral replication inhibition assay: HCoV-229E in MRC5 cells, PFU assay; format: cell-based, Human Coronavirus 229E
[3] = Cytotoxicity in MRC5 cells, MTT assay; details: human
MRC5 cells = experiment: Cytotoxicity in MRC5 cells, MTT assay; details: drugs tested against HCoV-229E
in vitro = details: human
MERS-CoV = details: in vitro; cited from earlier work
SARS-CoV-2 [4] = experiment: SARS-CoV-2 replication in Vero E6 cells, qRT-PCR of envelop (E) gene
SARS-CoV-2 [5] = details: cited from earlier work
SARS-CoV-2 [6] = details: especially in primary human bronchial epithelium cells; cited from earlier work
[7] = in vivo; cited from earlier work
[8] = Cytotoxicity in Vero E6 cells (WST-1 assay among others); format: cell-based; details: African green monkey; Vero E6 cells, 48 h
[9] = single 500 mg oral dose; cited from earlier work
lung cancer = details: nasal administration; cited from earlier work
SARS-CoV-2 [10] = details: SARS-CoV-2 infection; cited from earlier work
[11] = tested on: HCoV-229E, SARS-CoV and MERS-CoV; details: cited from earlier work
[12] = Human coronavirus 229E, MRC5, 48 h, HCoV-229E in MRC5 cells, high titer MOI = 1, PFU assay after 48 h, read-out: EC50
[13] = SARS-CoV-2 in Vero E6 cells, qRT-PCR after 48 h

Question: Which results are given for `CCN(CC)CCCC(C)Nc1ccnc2cc(Cl)ccc12` (stereo not shown) [Chloroquine, chloroquine diphosphate]?
Answer: cytotoxicity on Vero E6 cells (in words) (Vero E6 cells; 48 h): toxic; also recorded: high cytotoxicity; pEC50 (HCoV-229E [1]): 5.48; reduction of the viral titer (HCoV-229E [2]; HCoV-229E): 60%; pEC50 (HCoV-229E [2]; [12]): 5.30; HCoV-229E replication, low viral load (in words) (HCoV-229E [2]; MOI = 0.01, Figure 2): inhibits HCoV-229E replication; effect of combinatory treatment on HCoV-229E (in words) (HCoV-229E [2]; combinations of lopinavir/ritonavir, chloroquine, resveratrol, MOI 0.01, Figure 2B): did not observe a synergistic effect; effect when cells were treated before or after the infection (in words) (HCoV-229E [2]; pre-treated 3 h or post-treated 4 h, MOI 1, Figure 3): did not observe a significant difference

Question: For `CCN(CC)C(=S)SSC(=S)N(CC)CC` [Disulfiram, disulfiram], which “SI (selectivity index, CC50/EC50)” value (HCoV-229E [2]; HCoV-229E, MRC5 cells) is on record?
Answer: The value was 60.56.

Question: What about the pEC50 (HCoV-229E [2]; [12]) of the same compound?
Answer: The pEC50 was 6.86.

Question: What about the CC50 at 48 h ([3]; MRC5 cells) of the same compound?
Answer: The CC50 at 48 h was 8.4 µM.

Question: And the “cytotoxicity (in words)” value (MRC5 cells)?
Answer: The value was “highly cytotoxic”.

Question: For `CN(C)C(=O)C(CCN1CCC(O)(c2ccc(Cl)cc2)CC1)(c1ccccc1)c1ccccc1` [Loperamide, loperamide], which CC50 at 48 h [3] is on record?
Answer: The CC50 at 48 h was 10.1 µM.

Question: What about the “cytotoxicity (in words)” value (MRC5 cells) of the same compound?
Answer: Its value is “highly cytotoxic”.

Question: With `CO[C@H]1C[C@@H]2CC[C@@H](C)[C@@](O)(O2)C(=O)C(=O)N2CCCC[C@H]2C(=O)O[C@H]([C@H](C)C[C@@H]2CC[C@@H](O)[C@H](OC)C2)CC(=O)[C@H](C)/C=C(\C)[C@@H](O)[C@@H](OC)C(=O)[C@H](C)C[C@H](C)/C=C/C=C/C=C/1C` [Rapamycin, rapamycin] as the compound, how does the CC50 at 48 h (in vitro) read?
Answer: Its CC50 at 48 h is 2.5 µM.

Question: And the pEC50 (HCoV-229E [2]; Human coronavirus 229E, MRC5, 48 h)?
Answer: Its pEC50 is 5.64.

Question: What about the “reduction of MERS-CoV infection” value (MERS-CoV) of the same compound?
Answer: The value was “over 60%”.

Question: And the “cytotoxicity (in words)” value (MRC5 cells)?
Answer: The value was “highly cytotoxic”.

Question: Which “inhibition of SARS-CoV-2 replication” value (SARS-CoV-2 [4]; 25 µM, Vero E6 cells) does the source give for `Oc1ccc(/C=C/c2cc(O)cc(O)c2)cc1` [Resveratrol, resveratrol] here?
Answer: The value was 3 logs.

Question: What about the pEC50 (SARS-CoV-2 [4]; [13]) of the same compound?
Answer: The pEC50 was 4.97.

Question: What about the EC90 (SARS-CoV-2 [4]; [13]) of the same compound?
Answer: Its EC90 is 11.4 µM.

Question: What about the pEC50 (SARS-CoV-2 [5]) of the same compound?
Answer: The pEC50 was 5.35.

Question: What about the “replication of SARS-CoV-2 (in words)” value (SARS-CoV-2 [6]) of the same compound?
Answer: Its value is “inhibited the replication”.

Question: What about the “bioavailability (in words)” value [7] of the same compound?
Answer: The value was “poor bioavailability”.

Question: What about the CC50 at 48 h [8] of the same compound?
Answer: Its CC50 at 48 h is 48.2 µM.

Question: What about the non-cytotoxic doses (Vero E6 cells; in vitro, Vero E6) of the same compound?
Answer: Its non-cytotoxic doses is “up to 25 µM”.

Question: And the Tmax [9]?
Answer: Its Tmax is 1.3 h.

Question: What about the “reduction of tumor multiplicity” value (lung cancer) of the same compound?
Answer: The value was 27%.

Question: What about the “reduction of tumor volume” value (lung cancer) of the same compound?
Answer: The value was 45%.

Question: And the “reduction of the viral titer” value (HCoV-229E [2]; HCoV-229E)?
Answer: Its value is 80%.

Question: For `CCCC(CCC)C(=O)O` [VPA, valproic acid], which EC50 (HCoV-229E [2]; Human coronavirus 229E, MRC5, 48 h, HCoV-229E in MRC5 cells, PFU assay after 48 h, value in mM) is on record?
Answer: The EC50 was 1.34 mM.

Question: What about the CC50 at 48 h ([3]; MRC5 cells) of the same compound?
Answer: Its CC50 at 48 h is 4000 µM.

Question: What about the “cytotoxicity (in words)” value (MRC5 cells) of the same compound?
Answer: Its value is “highly cytotoxic”.

Question: With `CCN(CCO)CCCC(C)Nc1ccnc2cc(Cl)ccc12` (stereo not shown) [hydroxychloroquine] as the compound, how does the EC90 (SARS-CoV-2 [10]) read?
Answer: Its EC90 is 5.47 µM.

Question: With `Cc1cccc(C)c1OCC(=O)N[C@@H](Cc1ccccc1)[C@@H](O)C[C@H](Cc1ccccc1)NC(=O)[C@H](C(C)C)N1CCCNC1=O` [lopinavir] as the compound, how does the pEC50 (HCoV-229E [2]; HCoV-229E in MRC5 cells, high titer MOI = 1, PFU assay after 48 h, read-out: EC50) read?
Answer: Its pEC50 is 5.06.

Question: What about the pEC50 (HCoV-229E [2]; Human coronavirus 229E, MRC5, 48 h, HCoV-229E in MRC5 cells, high titer MOI = 1, PFU assay after 48 h) of the same compound?
Answer: The pEC50 was 5.06.

Question: Which “replication of SARS-CoV-2 (in words)” value (SARS-CoV-2 [6]) does the source give for `COc1cc(/C=C/c2ccc(O)cc2)cc(OC)c1` [pterostilbene] here?
Answer: The value was “inhibited the replication”.

Question: For `CC(C)c1nc(CN(C)C(=O)N[C@H](C(=O)N[C@@H](Cc2ccccc2)C[C@H](O)[C@H](Cc2ccccc2)NC(=O)OCc2cncs2)C(C)C)cs1` [ritonavir], which “anti-CoV activity (in words)” value [11] is on record?
Answer: Its value is “no selective anti-CoV activity”.

From paper PMC7926471 (Viruses, 2021)
